Laboratory results from patent publication US4221909A, “P-Acetamidobenzoic acid salts of 9-(hydroxyalkyl) purines” (Sloan-Kettering Institute for Cancer Research, priority 1978, dated 1980).

How the values were obtained:
Format in all cases: cell-based
[1] = tested on: human peripheral blood lymphocytes; test: Mitogen Induced (PHA) Human Lymphocyte Proliferation
[2] = tested on: Influenza A USSR/90(H1 N1); test: Anti-Influenza Activity (Hemadsorption Assay), Influenza A USSR/90
Procedure: Upon infection of a monolayer of tissue culture cells by influenza virus, the cell surface is altered so that guinea pig erythrocytes can be adsorbed to the cell surface. The number of foci of adsorbed cells (hemadsorption foci forming units HAFFU) is a quantitative measure of infectivity. The method is as follows.
The monolayers were subcultured in the following manner: The medium was poured off, and the monolayer washed two times with approximately 50 ml per wash of calcium and magnesium free phosphate buffered saline (PBS), (GIBCO #419) at a pH of 7.2. One ml of trypsin-EDTA solution (GIBCO #530L) containing 0.5 g trypsin (1:250) and 2.0 g EDTA/liter of Modified Puck's Saline A was added at 37° C. to each flask and dispersed over the monolayer with gentle shaking. The flasks were then placed in an incubator at 37° C. for approximately 3-5 minutes depending on the time required to dislodge the cells. Occasional shaking was required. Ten ml of planting medium was added to each flask and the cells dispersed by aspirating and expelling the suspension from the pipette. The contents of a series of flasks were pooled and the cells in the suspension were diluted with planting medium to 7-8.5×10^4 cells/ml. The planting medium consisted of the following composition: Minimum Essential Medium Eagles (MEM) with Earle's salts and HEPES buffer (GIBCO #236) supplemented by adding the following substances as specified to 87 ml of MEM:
The following day the medium was removed and replaced with fresh planting medium. The monolayers were used for experimentation when they reached a condition in which they were almost confluent (approximately 3-4 days).
When the Linbro tray HeLa cell cultures were ready for experimentation (see cells), the medium was decanted and 1 ml of maintenance medium (MEM with FCS reduced to 3%) containing the compound being tested at a given concentration was added to 4 replicate cultures within a tray.
A series of different drug concentrations ranging from 2.3 to 150 μg/ml were used. Maintenance medium alone was used for control cultures. After the administration of drug and control medium, 0.1 ml of the diluted viral suspension was added to experimental groups and infected control cultures. Saline alone was added to non-infected control cultures. The Linbro trays were then incubated at 37° C. for 18 hours, after which media in all groups was aspirated. Each culture was washed once with PBS. The saline was aspirated and 0.5 ml of a 0.4% v/v guinea pig red blood cell suspension in PBS was added to each culture well. The cultures remained at room temperature for 30 minutes after which the medium was decanted and culture washed […] with PBS to remove all but the specifically bound red cells. After the third wash, maintenance medium was added to all cultures.
A Howard Micrometer eyepiece (C8385) was inserted within the ocular of a Nikon inverted phase contrast microscope. Each culture was scanned with a 4× low paper objective and direct counts of hemadsorbed red cells were counted using the eyepiece grid as a field marker. Partial or complete fields were counted per experimental group depending on the resulting number and density of hemadsorbed cells in the infected control cultures. Magnification of 60× or 150× were chosen to obtain the best conditions for enumerating the hemadsorbed cells. Field factors were calculated for counting hemadsorption at 60× and 150×. At 60× magnification, total field count was calculated using a multiplication factor of 55.5. At 150× magnification the multiplication factor was 273. The multiplication factors of 55.5 and 273 represent the total number of fields at 60× and 150× magnifications, respectively. The number of fields counted ranged from 3 to 5 per well with 3 to 4 wells per treatment group employed (see raw data tables in results section for number of fields examined). Means and standard errors were calculated and the data was evaluated using student's t-test analysis.

Mouse spleen cells = test: Mitogen Induced (Con A) Mouse Lymphocyte Proliferation
Text: (§1) The following three assay procedures are used to evaluate the ability of the test substances to modulate the activity of several classes of cells in the immune system. In these systems it is possible to identify both immunopotentiating activity (evidence by an enhancement of the parameter examined) as well as immunosuppressant activity (evidenced by an inhibition of the parameter examined).
1. Mitogen--Induced Mouse Spleen Cell Assay--Mouse spleen cells contain a population of both B and T lymphocytes which can be stimulated by a number of foreign substances (e.g., plant mitogens such as Con A) to proliferate. This enhanced proliferation is an indication of enhanced cell mediated immunity. The method below describes the system used to evaluate test substances as immunopotentiators.
Concanavalin A (Calbiochem, La Jolla, Calif.), Lot #210073, lyophilized in NaCl, was prepared first as a 1% solution and diluted as a 2× concentration for each dilution (0.5, 1.0, 2.5 μg/ml).
Six to eight week old male Balb/c and C3 H inbred mice were obtained from the following sources: Flow Research Animals, Inc., Dublin, Va.; Charles River Breeding Laboratories, Wilmington, Mass.; Laboratory Supply Company, Indianapolis, Ind.; and Lionel Strong Foundation, San Diego, Calif.
Three to five mice were sacrificed by cervical dislocation and the spleens aseptically removed. Pooled spleens were minced and teased with sterile forceps; then strained through a double layer of nylon mesh. The cell suspension was washed once with 15 ml of RPMI 1640 supplemented with 5% fetal calf serum and antibiotics. Cells were cultured at a concentration of 10^6 cells/0.1 ml/well in micro-plates. Cultures were incubated in the presence or absence of mitogen in a humidified atmosphere containing 5% CO2 for 48 hours. The test compound was added to cultures at various concentrations concommitant with mitogen.
Proliferation was assayed by the degree of incorporation of 1.0 μCi of [^3 H] thymidine over an 18 hour incubation period. Cultures were harvested by a MASH unit (Otto Hiller Co., Madison, Wisconsin) and thymidine incorporation was assayed by liquid scintillation spectrometry. Cultures were performed in triplicate and data are expressed as means plus or minus the strandard error of the experimental means. Drug stimulation indices over control values were also calculated and portrayed graphically.

influenza virus = test: Anti-influenza activity (summary)
[3] = tested on: guinea pig peritoneal macrophages; test: Lymphokine Induced (MMF) Guinea Pig Macrophage Proliferation
Text: as §1
3. The macrophage represents a subpopulation of white blood cells which is an important component of the immune system in control of both cellular and humoral immunity. The assay system described below evaluates the substances studied as potentiators of macrophage function.
Phytohemagglutinin(PHA) (HA-17) was purchased from Burroughs Wellcome. A preparation containing Macrophage Mitogen Factor (MMF) and Macrophage Activating Factor (MAF) was prepared from antigen-stimulated immune lymph node lymphocytes (guinea pig) as previously described by Hadden et al, Nature 257, 483-485 (1975). […] The active fraction was employed in both the proliferation and activation assays.
Ficoll-hypaque purified human peripheral blood lymphocytes were prepared and PHA-induced lymphocyte proliferation was assayed by the incorporation of tritiated thymidine as described in Hadden et al, Cell. Immunol. 20, 98-103 (1975). Each compound was analyzed in the presence of suboptimal, optimal and supraoptimal concentrations of PHA (0.001, 0.01, 0.1 units/ml respectively). Paraffin oil-induced guinea pig peritoneal macrophages were prepared and incubated as monolayer culture (>98% pure macrophages). Lymphokine (MMF)-induced proliferation was assayed by the incorporation of triturated thymidine at 3 and 5 days of culture as described, Hadden et al, Nature 257, 483-485 (1975). Lymphokine (MAF)-induced macrophage activation to kill Listeria monocytogenes following 5 days of culture in the presence or absence of MAF was performed during a 6 hour period as described in Hadden and England, Immunopharmacology, pages 87-100 (Plenum Press, 1977). Phagocytosis was quantitated during a 20-minute exposure to Listeria monocytogenes by counting the number of macrophages containing bacteria and the number of bacteria per phagocytic cell on gram stained monolayers in Labtek chambers. Intracellular killing of bacteria was evaluated by counting the number of cells containing bacteria and the number of bacteria/cell 6 hours after the initial 20 minute exposure. Parallel experiments in which macrophages were lysed and intracellular bacteria were cultured confirm the validity of bacterial activity determined by this manner in this sytem. The drugs were employed in each of the three systems over serial log concentration range in triplicate in the presence and absence of mitogen or lymphokine. Each type of experiment was performed at least three times. Previous experiments indicate a parallelism of response to pharmacologic modulation in the proliferation and activation assays.

Row | Compound | Maximum Percent Change, Mitogen Induced (PHA) Human Lymph. Prolif. ([1]; 1.0-10) | Maximum Percent Change, Mitogen Induced (PHA) Human Lymph. Prolif. ([1]; 10-100) | Maximum Percent Change, Mitogen Induced (PHA) Human Lymph. Prolif. ([1]; .01-1.0) | Maximum Percent Change, Mitogen Induced (Con A) Mouse Lymph. Prolif. (Mouse spleen cells; 1.0-10) | Maximum Percent Change, Mitogen Induced (Con A) Mouse Lymph. Prolif. (Mouse spleen cells; 10-100) | Maximum Percent Change, Mitogen Induced (Con A) Mouse Lymph. Prolif. (Mouse spleen cells; .01-1.0) | DIP.PAcBA potentiation of Anti-Influenza activity (influenza virus) | further results
1 | CC(O)Cn1cnc2c(N)ncnc21 (centres unmarked) [NPT 15431, 9-(2-HYDROXY-1-PROPYL)ADENINE] | 0% | 0% | 0% | -27% | -47% | -15% | – | % Inhibition of Hemadsorption Foci ([2]; Conc. 10-100 μg/ml, listed as 15431): 22%; % Inhibition of Hemadsorption Foci ([2]; Conc. >100 μg/ml, listed as 15431): 0%
2 | OCCn1cnc2c(S)ncnc21 [NPT 15437] | – | – | – | – | – | – | Yes | % Inhibition of Hemadsorption Foci ([2]; Conc. 10-100 μg/ml): 65%; % Inhibition of Hemadsorption Foci ([2]; Conc. >100 μg/ml, listed as 15437): 65%
3 | CC(=O)Nc1ccc(C(=O)O)cc1.CC(O)CN(C)C [compound 15110, dimethylamino-2-propanol-p-acetamido benzoate, reference compound] | – | – | – | – | – | – | – | % Inhibition of Hemadsorption Foci ([2]; Conc. 10-100 μg/ml): 0%; % Inhibition of Hemadsorption Foci ([2]; Conc. <10 μg/ml): 0%; % Inhibition of Hemadsorption Foci ([2]; Conc. >100 μg/ml): 20%
4 | CC(CO)n1cnc2c(Cl)ncnc21 (centres unmarked) [NPT 15423, 9-(1-HYDROXY-2-PROPANE)-6-CHLOROPURINE] | – | – | – | – | – | – | – | inhibition ([2]; Influenza A virus, Conc. 10-100 μg/ml, read-out: % Inhibition of Hemadsorption Foci): 13%
5 | CC(CO)n1cnc2c(N)ncnc21 (centres unmarked) [NPT 15434] | – | – | – | – | – | – | Yes | % Inhibition of Hemadsorption Foci ([2]; Conc. 10-100 μg/ml): 41%; % Inhibition of Hemadsorption Foci ([2]; Conc. >100 μg/ml, listed as 15434): 62%
6 | CC(CO)n1cnc2c(=O)[nH]cnc21 (centres unmarked) [NPT 15443, 9-(1-HYDROXY-2-PROPYL)HYPOXANTHINE] | +13% | 0% | 0% | +27% | +27% | +17% | – | Maximum Percent Change, Lymphokine Induced (MMF) Guinea Pig Mac. Prolif. ([3]; 1.0-10): 0%; Maximum Percent Change, Lymphokine Induced (MMF) Guinea Pig Mac. Prolif. ([3]; .01-1.0): +20%; % Inhibition of Hemadsorption Foci ([2]; Conc. 10-100 μg/ml, listed as 15443): 0%; % Inhibition of Hemadsorption Foci ([2]; Conc. >100 μg/ml, listed as 15443): 0%
7 | O=c1[nH]cnc2c1ncn2CCO [NPT 15425, 9-HYDROXYETHYL HYPOXANTHINE] | 0% | 0% | 100% | 0% | – | 11% | – | –
8 | CC(O)Cn1cnc2c(=O)[nH]cnc21 (centres unmarked) [NPT 15446, 9-(2-HYDROXY-1-PROPYL)HYDROXANTHINE] | 0% | 0% | 0% | 12% | 0% | 6% | – | Maximum Percent Change, Lymphokine Induced (MMF) Guinea Pig Mac. Prolif. ([3]; 1.0-10): 0%; Maximum Percent Change, Lymphokine Induced (MMF) Guinea Pig Mac. Prolif. ([3]; 10-100): 0%; Maximum Percent Change, Lymphokine Induced (MMF) Guinea Pig Mac. Prolif. ([3]; .01-1.0): 0%; % Inhibition of Hemadsorption Foci ([2]; Conc. 10-100 μg/ml, listed as 15446): 0%; % Inhibition of Hemadsorption Foci ([2]; Conc. <10 μg/ml, listed as 15446): 2%; % Inhibition of Hemadsorption Foci ([2]; Conc. >100 μg/ml, listed as 15446): 0%
9 | CC(CO)n1cnc2c(N)ncnc21 (centres unmarked) [NPT 15433, 9-(1-HYDROXY-2-PROPYL)ADENINE] | 0% | -50% | 53% | -23% | -65% | +15% | – | % Inhibition of Hemadsorption Foci ([2]; Conc. >100 μg/ml, listed as 15433): 0%
10 | CC(CO)n1cnc2c(=O)[nH]cnc21 (centres unmarked) [NPT 15444] | – | – | – | – | – | – | Yes | % Inhibition of Hemadsorption Foci ([2]; Conc. 10-100 μg/ml, listed as 15444): 44%; % Inhibition of Hemadsorption Foci ([2]; Conc. >100 μg/ml, listed as 15444): 54%
11 | CC(O)Cn1cnc2c(N)ncnc21 (centres unmarked) [NPT 15432] | – | – | – | – | – | – | Yes | % Inhibition of Hemadsorption Foci ([2]; Conc. 10-100 μg/ml, listed as 15432): 48%; % Inhibition of Hemadsorption Foci ([2]; Conc. >100 μg/ml, listed as 15432): 62%
12 | CC(O)Cn1cnc2c(=O)[nH]cnc21 (centres unmarked) [NPT 15447] | – | – | – | – | – | – | Yes | % Inhibition of Hemadsorption Foci ([2]; Conc. 10-100 μg/ml, listed as 15447): 26%; % Inhibition of Hemadsorption Foci ([2]; Conc. <10 μg/ml, listed as 15447): 10%; % Inhibition of Hemadsorption Foci ([2]; Conc. >100 μg/ml, listed as 15447): 34%
